According to patent US6506751B1, “Thiazolidinone compounds useful as chemokine inhibitors” (Millennium Pharmaceuticals, Inc., priority 1999, dated 2003):

Molecular target: T1, CCR-5 receptor (Homo sapiens, UniProt P51681)
T1 construct: membranes prepared from CCR-5/L 1.2 cells; expressed in transfected cells; host or cells: L1.2 cells (CCR-5/L 1.2), membrane preparation
Test: 125I-gp120/sCD4/CCR-5 binding assay (CCR-5 receptor binding assay)
Settings: 10 μM compound; 125I-gp120/sCD4 binding to membranes from CCR-5/L 1.2 cells
Description: The ^125I-gp120/sCD4/CCR-5 binding assay is carried out similarly as described in Wu et al., Nature, 1996;384:179-183. Briefly, the envelope gp120 protein derived from HIV-1 JR-FL (Trkola et al., Nature, 1996;384:184-186), a M-tropic strain, is iodinated using solid phase lactoperoxidase to a specific activity of 20 μCi/μg. For each binding reaction (in a final volume of 100 μL binding buffer [50 mM HEPES, pH 7.5, 1 mM CaCl2, 5 mM MgCl2, and 0.5% BSA]), 25 μL (2.5 μg) of membranes prepared from CCR-5/L 1.2 cells are mixed with 25 μL (3 nM) sCD4, followed by 25 μL (0.1 nM) radiolabeled gp120 in the presence or absence of 25 μL compound dissolved in DMSO (final concentration of DMSO 0.5%). The reactions are incubated at room temperature for 45 to 60 minutes and stopped by transferring the mixture to GFB filter plates, which are then washed 3 to 4 times with binding buffer containing 0.5 M NaCl. The plates are dried and MicroScint scintillation fluid is added before counting.

T1 sequence (P51681 whole entry): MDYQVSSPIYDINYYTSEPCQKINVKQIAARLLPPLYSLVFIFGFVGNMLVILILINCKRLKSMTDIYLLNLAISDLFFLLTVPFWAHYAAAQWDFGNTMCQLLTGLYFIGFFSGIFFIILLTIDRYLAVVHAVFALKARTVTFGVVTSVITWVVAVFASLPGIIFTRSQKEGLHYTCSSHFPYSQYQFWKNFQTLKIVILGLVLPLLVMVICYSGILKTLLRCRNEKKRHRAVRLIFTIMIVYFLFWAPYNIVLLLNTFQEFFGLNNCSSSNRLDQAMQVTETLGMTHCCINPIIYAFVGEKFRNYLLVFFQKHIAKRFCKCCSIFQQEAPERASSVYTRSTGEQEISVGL

% Inhib. @ 10 μM | SMILES
78.8% | O=C1C(=Cc2cccc(F)c2)SC(c2cccc(Cl)c2)N1CCCN1CCN(c2ccccn2)CC1 (stereo not shown) [Compound 28, 2-(3-Chloro-phenyl)-5-(3-fluoro-benzylidene)-3-[3-(4-pyridin-2-yl-piperazin-1-yl)-propy1]-thiazolidin-4-one]
81.8% | O=C1C(=Cc2cccc(C(F)(F)F)c2)SC(c2cccc(Cl)c2)N1CCCN1CCN(c2ncccn2)CC1 (stereo not shown) [Compound 32]
70.1% | O=C1C(=Cc2ccccc2)SC(c2cccc([N+](=O)[O-])c2)N1CCCN1CCN(c2ncccn2)CC1 (stereo not shown) [Compound 39]

Same assay, conditions: 10 μM compound; 125I-gp120/sCD4 binding to membranes from CCR-5/L 1.2 cells; read-out: % Inhib. @ 10 μM

inhibition at 10 µM | SMILES
50.7% | O=C1C(=Cc2cccc(F)c2)SC(c2cccc(C(F)(F)F)c2)N1CCCN1CCCCC1 (stereo not shown) [Compound 25, 5-(3-Fluoro-benzylidene)-3-(3-piperidin-1-yl-propyl)-2-(3-trifluoromethyl-phenyl)-thiazolidin-4-one]
63.3% | O=C1C(=Cc2ccccc2)SC(c2cccc(F)c2)N1CCCN1CCCCC1 (stereo not shown) [Compound 36, 5-Benzylidene-2-(3-fluoro-phenyl)-3-(3-piperidin-1-yl-propyl)-thiazolidin-4-one]

Continued, compound first:

SMILES | inhibition at 10 µM
O=C1C(=Cc2cccc(F)c2)SC(c2cccc(F)c2)N1CCCN1CCN(c2ccccn2)CC1 (stereo not shown) [Compound 26, 5-(3-Fluoro-benzylidene)-2-(3-fluoro-phenyl)-3-[3-(4-pyridin-2-yl-piperazin-1-yl)-propyl]-thiazolidin-4-one] | 75.3%
O=C1C(=Cc2cccc(F)c2)SC(c2cccc(F)c2)N1CCCN1CCN(C2CCCCC2)CC1 (stereo not shown) [Compound 27, 3-[3-(4-Cyclohexyl-piperazin-1-yl)-propyl]-5-(3-fluoro-benzylidene)-2-(3-fluoro-phenyl)-thiazolidin-4-one] | 57.6%
O=C1C(=Cc2cccc(F)c2)SC(c2cccc(Cl)c2)N1CCCN1CCN(c2ncccn2)CC1 (stereo not shown) [Compound 29, 2-(3-Chloro-phenyl)-5-(3-fluoro-benzylidene)-3-[3-(4-pyrimidin-2-yl-piperazin-1-yl)-propyl]-thiazolidin-4-one] | 86.8%
O=C1C(=Cc2cccc(C(F)(F)F)c2)SC(c2cccc(Cl)c2)N1CCCN1CCN(c2ccccn2)CC1 (stereo not shown) [Compound 30, 2-(3-Chloro-phenyl)-3-[3-(4-pyridin-2-yl-piperazin-1-yl)-propyl]-5-(3-trifluoromethyl-benzylidene)-thiazolidin-4-one] | 61.7%
O=C1C(=Cc2cccc(C(F)(F)F)c2)SC(c2cccc(Cl)c2)N1CCCN1CCCCC1 (stereo not shown) [Compound 31, 2-(3-Chloro-phenyl)-3-(3-piperidin-1-yl-propyl)-5-(3-trifluoromethyl-benzylidene)-thiazolidin-4-one] | 54.4%
O=C1C(=Cc2ccccc2)SC(c2cccc(C(F)(F)F)c2)N1CCCN1CCN(c2ccccn2)CC1 (stereo not shown) [Compound 33, 5-Benzylidene-3-[3-(4-pyridin-2-yl-piperazin-1-yl)-propyl]-2-(3-trifluoromethyl-phenyl)-thiazolidin-4-one] | 62%
O=C1C(=Cc2ccccc2)SC(c2cccc(C(F)(F)F)c2)N1CCCN1CCN(c2ncccn2)CC1 (stereo not shown) [Compound 34, 5-Benzylidene-3-[3-(4-pyrimidin-2-yl-piperazin-1-yl)-propyl]-2-(3-trifluoromethyl-phenyl)-thiazolidin-4-one] | 79.2%
O=C1C(=Cc2ccccc2)SC(c2cccc(F)c2)N1CCCN1CCN(c2ccccn2)CC1 (stereo not shown) [Compound 35, 5-Benzylidene-2-(3-fluoro-phenyl)-3-[3-(4-pyridin-2-yl-piperazin-1-yl)-propyl]-thiazolidin-4-one] | 76.2%
O=C1C(=Cc2ccccc2)SC(c2cccc(F)c2)N1CCCN1CCC(N2CCCCC2)CC1 (stereo not shown) [Compound 37, 5-Benzylidene-3-(3-[1,4′]bipiperidinyl-1′-yl-propyl)-2-(3-fluoro-phenyl)-thiazolidin-4-one] | 56.6%
O=C1C(=Cc2ccccc2)SC(c2cccc(F)c2)N1CCCN1CCN(C2CCCCC2)CC1 (stereo not shown) [Compound 38, 5-Benzylidene-3-[3-(4-cyclohexyl-piperazin-1-yl)-propyl]-2-(3-fluoro-phenyl)-thiazolidin-4-one] | 54.4%
O=C1C(=Cc2ccccc2)SC(c2cccc(Cl)c2)N1CCCN1CCN(c2ccccn2)CC1 (stereo not shown) [Compound 40, 5-Benzylidene-2-(3-chloro-phenyl)-3-[3-(4-pyridin-2-yl-piperazin-1-yl)-propyl]-thiazolidin-4-one] | 84.3%
O=C1C(=Cc2ccccc2)SC(c2cccc(Cl)c2)N1CCCN1CCC(N2CCCCC2)CC1 (stereo not shown) [Compound 41, 5-Benzylidene-3-(3-[1,4′]bipiperidinyl-1′-yl-propyl)-2-(3-chloro-phenyl)-thiazolidin-4-one] | 62.4%
O=C1C(=Cc2ccccc2)SC(c2cccc(Cl)c2)N1CCCN1CCOCC1 (stereo not shown) [Compound 42, 5-Benzylidene-2-(3-chloro-phenyl)-3-(3-morpholin-4-yl-propyl)-thiazolidin-4-one] | 64.7%
O=C1C(=Cc2ccccc2)SC(c2cccc(Cl)c2)N1CCCN1CCN(c2ncccn2)CC1 (stereo not shown) [Compound 43, 5-Benzylidene-2-(3-chloro-phenyl)-3-[3-(4-pyrimidin-2-yl-piperazin-1-yl)-propyl]-thiazolidin-4-one] | 95%
O=C1C(=Cc2ccccc2)SC(c2cccc(Cl)c2)N1CCCN1CCN(C2CCCCC2)CC1 (stereo not shown) [Compound 44, 5-Benzylidene-2-(3-chloro-phenyl)-3-[3-(4-cyclohexyl-piperazin-1-yl)-propyl]-thiazolidin-4-one] | 54.5%

Same assay, conditions: block of 125I-gp120 (HIV-1 JR-FL)/sCD4 binding to membranes from CCR-5/L 1.2 cells

IC50 | SMILES
200 nM | O=C1/C(=C\c2cccc(F)c2)SC(c2cccc(Cl)c2)N1CCCN1CCCCC1 (stereo not shown) [Compound 4, 2-(3-Chlorophenyl)-5-(3-fluorobenzylidene)-3-(3-piperidin-1-yl-propyl)-thiazolidin-4-one]
710 nM | O=C1/C(=C\c2cccc(F)c2)SC(c2ccccc2)N1CCCN1CCC(N2CCCCC2)CC1 (stereo not shown) [Compound 5, 3-(3-[1,4′]Bipiperidinyl-1′-yl-propyl)-5-(3-fluorobenzylidene)-2-phenyl-thiazolidin-4-one]
140 nM | O=C1/C(=C\c2cccc(F)c2)SC(c2ccccc2)N1CCCN1CCOCC1 (stereo not shown) [Compound 7, 5-(3-Fluorobenzylidene)-3-(3-morpholin-4-yl-propyl)-2-phenyl-thiazolidin-4-one]
780 nM | O=C1/C(=C\c2ccncc2)SC(c2cccc(Cl)c2)N1CCCN1CCCCC1 (stereo not shown) [Compound 8, 2-(3-Chlorophenyl)-3-(3-piperidin-1-yl-propyl)-5-(pyridin-4-yl-methylene)-thiazolidin-4-one]
390 nM | O=C1/C(=C\c2ccc[nH]2)SC(c2cccc(Cl)c2)N1CCCN1CCCCC1 (stereo not shown) [Compound 9, 2-(3-Chlorophenyl)-3-(3-piperidin-1-yl-propyl)-5-(1 H-pyrrol-2-yl-methylene)-thiazolidin-4-one]
980 nM | Cn1cccc1C=C1SC(c2cccc(Cl)c2)N(CCCN2CCCCC2)C1=O (stereo not shown) [Compound 11, 2-(3-Chlorophenyl)-5-(1-methyl-1H-pyrrol-2-ylmethylene)-3-(3-piperidin-1-yl-propyl)-thiazolidin-4-one]
4120 nM | O=C1/C(=C\c2cnc3ccccc3c2)SC(c2cccc(Cl)c2)N1CCCN1CCCCC1 (stereo not shown) [Compound 18, 2-(3-Chlorophenyl)-3-(3-piperidin-1-yl-propyl)-5-(quinolin-3-ylmethylene)-thiazolidin-4-one]
400 nM | O=C1/C(=C\c2cccc(F)c2)SC(c2cccc(Cl)c2)N1CCCN1CCC(N2CCCCC2)CC1 (stereo not shown) [Compound 22, 3-(3-[1,4′]Bipiperidinyl-1′-yl-propyl)-2-(3-chlorophenyl)-5-(3-fluorobenzylidene)-thiazolidin-4-one]

More lines, now with the values behind:

SMILES | IC50
O=C1/C(=C\c2ccccc2)SC(c2cccc(Cl)c2)N1CCCN1CCCCC1 (stereo not shown) [Compound 3, 5-Benzylidene-2-(3-chlorophenyl)-3-(3-piperidin-1-yl-propyl)-thiazolidin-4-one] | 280 nM
O=C1/C(=C\c2ccsc2)SC(c2cccc(Cl)c2)N1CCCN1CCCCC1 (stereo not shown) [Compound 10, 2-(3-Chlorophenyl)-3-(3-piperidin-1-yl-propyl)-5-(thiophen-3-yl-methylene)-thiazolidin-4-one] | 1040 nM
CCC(/C=C1/SC(c2cccc(Cl)c2)N(CCCN2CCCCC2)C1=O)CC (stereo not shown) [Compound 12, 2-(3-Chlorophenyl)-5-(2-ethylbutylidene)-3-(3-piperidin-1-yl-propyl)-thiazolidin-4-one] | 6640 nM
CN(C)CC(C)(C)/C=C1/SC(c2cccc(Cl)c2)N(CCCN2CCCCC2)C1=O (stereo not shown) [Compound 13, 2-(3-Chlorophenyl)-5-(3-dimethylamino-2,2-dimethylpropylidene)-3-(3-piperidin-1-yl-propyl)-thiazolidin-4-one] | 2820 nM
O=C1C(=Cc2ccccc2)SC(c2ccccc2)N1CCCN1CCCCCC1 (stereo not shown) [Compound 21, 3-(3-Azepan-1-ylpropyl)-5-benzylidene-2-phenyl-thiazolidin-4-one] | 1400 nM
O=C1C(=Cc2ccccc2)[S+]([O-])C(c2cccc(Cl)c2)N1CCCN1CCCCC1 (stereo not shown) [Compound 24, 5-Benzylidene-2-(3-chlorophenyl)-1-oxo-3-(3-piperidin-1-yl-propyl)-thiazolidin-4-one] | 3100 nM
